Laboratory results as given in patent US5196410A, “Transdermal flux enhancing compositions” (priority 1991, dated 1993).
Converted amounts (≈) assume the structure as drawn. Read-outs that look alike come from different tables or passages of the source.

Columns and labels:
[1] = assay type: in vitro ADME, porcine
Procedure: Samples were removed periodically from the receiver side of the diffusion cell, mixed with a Z0 scintillation cocktail (Scintisol, Isolabs, Inc., Akron, OH) and counted for several minutes in a liquid scintillation counter (Model Mark III-6881, Tracor Analytical, Elk Grove Village, IL). Following an initial lag time of about 6 hours, the amount of
salicylic acid appearing in the receiver side was linear with time for the duration of the experiment (routinely 24 to 48 hours). […] This value, when divided by the specific acitivity of salicyclic acid in the saturated solution (approximately 300 dpm/mg) and the area of exposed skin (0.2 cm^2), yielded the flux (mg/cm^2/ hr). Samples removed from the donor side at the beginning and end of the experiment contained, within error, the same amount of salicylic acid. Thus, constant concentration of the permeant was maintained on the donor side throughout the experiment.

[2] = Differential scanning calorimetry of fatty acid treated porcine stratum corneum; conditions: stratum corneum treated with […] fatty acid in ethanol, 30% (w/w) water
Procedure: (§1) Stratum corneum sheets were prepared from porcine skin by trypsin treatment. Thus, full thickness porcine skin samples were dermatomed to 350 μm thickness and spread, stratum corneum side up, on filter paper saturated with 0.5% crude trypsin in phosphate buffered saline at pH 7.4 (Sorensen's buffer). After several hours at 37° C. the stratum corneum was peeled away, washed in soybean trypsin inhibitor, water and air dried. Samples were stored desiccated at room temperature until used. Prior to use, dry skin samples of known weight were incubated for two hours in an 0.15M solution of the appropriate fatty acid in ethanol, the samples were then washed for ten seconds in ethanol, spread on wire mesh, dried over a desiccant and the dry sample reweighed. The stratum corneum samples were then held for several days in a chamber at 22° C., 95% relative humidity, during which the stratum corneum samples equilibrated to a water content of 30% (w/w).
(§2) The differential scanning calorimeter^5 was used at a scan rate of 0.75° C./minute. Duplicate samples from each of the above FTIR experiments were combined for DSC measurements. Alternately, stratum corneum samples of known weight (about 20 mg) were treated with each fatty acid in the same manner described above. Treated samples were hydrated for several days at 95% R.H., 22° C. and reweighed.

[3] = Infrared spectra of fatty acid treated porcine stratum corneum; conditions: C-H antisymmetric stretching; stratum corneum treated with […] fatty acid in ethanol, 30% (w/w) water
Procedure: as §1
Infrared spectra were obtained with a Fourier Transform Infrared Spectrometer^4 (FTIR) equipped with a liquid nitrogen cooled mercury-cadmium telluride detector. In order to prevent water loss, hydrated samples were sealed between zinc sulfide windows while maintained at 22° C., 95% relative humidity. Sealed samples were placed in the spectrometer where an average of 127 scans were obtained in about six minutes for each of the fatty acid treatments. The digitized data were transferred to a computer (Apple IIe) for determination of frequency and bandwidth of the C--H antisymmetric stretching absorbance. Due to the digital nature of the FTIR instrument, absorbance and frequency data exist only in discrete increments. With the instrument used, the exact value of any frequency point could only be determined with a precision not greater than 2.7 cm^-1. The peak frequency was estimated with much greater precision, however, using a center of gravity algorithm for digitized data reported by Cameron et al., Applied Spectr., 36 245-250 (1982).

[4] = for Flux: SD in parentheses
[5] = Procedure: The in vitro flux of piroxicam was measured from ethanol/buffer vehicles containing 0.25% v/v (0.224% w/v) cis-9-octadecenoic acid (oleic acid). The buffer employed was Sorensen's Buffer, pH 7.3-7.4^3, all experiments were carried out at 32° C. […] Buffer only was introduced into the chamber (receiver) in contact with the internal side of the skin. The donor chamber, in contact with the outer side of the skin was filled with the appropriate ethanol/buffer vehicle containing 0.25% v/v cis-9-octadecenoic acid (oleic acid) and an excess of piroxicam.
[6] = Lipid transition temperature of porcine stratum corneum by DSC in vehicles containing oleic acid
Procedure: as §1, with “dry skin samples of known weight were incubated for two hours in an 0.15M solution of the appropriate” left out
as §2

[7] = physchem; conditions: […] oleic acid, organic solvent or mixture
[8] = saturated salicylic acid in ethanol with […] of the fatty acid, 32° C.

Structure (SMILES): CCCCCCCCCCC/C=C\CCCCC(=O)O [Petroselenic]
- Flux of Salicylic Acid [1]: 0.79 mg/cm^2 /hr
- DSC Tm (temperature of the transition maximum) [2]: 60.5 °C
- Peak IR Frequency [3]: 2919.0 cm⁻¹

Structure (SMILES): Cc1cnc(C(=O)NCCc2ccc(S(=O)(=O)NC(=O)NC3CCCCC3)cc2)cn1 [Glipizide]
- Flux ([4]; 20% v/v ethanol, 0.5% v/v Azone, 6.8 mg/ml, pH 8.8): 55.9 (38.8) mg/day/30 cm^2
- Flux ([4]; 20% v/v ethanol, no Azone, 6.7 mg/ml, pH 8.9): 0.4 (0.04) mg/day/30 cm^2
- Flux ([4]; 30% v/v ethanol, 0.5% v/v Azone, 8.1 mg/ml, pH 8.8): 101.4 (10.3) mg/day/30 cm^2
- Flux ([4]; 30% v/v ethanol, no Azone, 8.2 mg/ml, pH 8.9): 0.6 (0.2) mg/day/30 cm^2
- Flux ([4]; 55% v/v ethanol, 0.5% v/v Azone, 17.5 mg/ml, pH 8.8): 30.8 (6.5) mg/day/30 cm^2
- Flux ([4]; 55% v/v ethanol, no Azone, 17.9 mg/ml, pH 9.1): 2.7 (0.5) mg/day/30 cm^2
- in vitro transport ([4]; range over vehicles): 30.8 to 101.4 mg/day/30 cm^2

Structure (SMILES): CCCCCC/C=C\CCCCCCCCCC(=O)O [cis-vaccenic, cis-11-octadecenoic acid]
- flux of salicylic acid (in words) ([1]; difference relative to the controls and trans-vaccenic acid): even greater
- Flux of Salicylic Acid [1, 8]: 5.53 mg/cm^2 /hr
- DSC Tm (temperature of the transition maximum) [2]: 57.0 °C

Structure (SMILES): CC(C)Cc1ccc(C(C)C(=O)O)cc1 (stereo not shown) [Ibuprofen, 2-(4-isobutylphenyl)propionic acid]
- Relative Flux ([5]; 0/100 v/v ethanol/buffer, […] v/v oleic acid (reference)): 1.0
- Relative Flux ([5]; 20/80 v/v ethanol/buffer, […] v/v oleic acid, relative to 0/100 ethanol/buffer): 1.5
- Relative Flux ([5]; 30/70 v/v ethanol/buffer, […] v/v oleic acid, relative to 0/100 ethanol/buffer): 1.8
- Relative Flux ([5]; 40/60 v/v ethanol/buffer, […] v/v oleic acid, relative to 0/100 ethanol/buffer): 3.5
- Relative Flux ([5]; 50/50 v/v ethanol/buffer, […] v/v oleic acid, relative to 0/100 ethanol/buffer): 5
- Relative Flux ([5]; 60/40 v/v ethanol/buffer, […] v/v oleic acid, relative to 0/100 ethanol/buffer): 4.5
- Relative Flux ([5]; 70/30 v/v ethanol/buffer, […] v/v oleic acid, relative to 0/100 ethanol/buffer): 4.5
- Relative Flux ([5]; 100/0 v/v ethanol/buffer, […] v/v oleic acid, relative to 0/100 ethanol/buffer): 4.5

Structure (SMILES): CCCCCCCC/C=C\CCCCCCCC(=O)O [Oleic Acid, cis-9-octadecenoic acid]
- Flux of Salicylic Acid [1]: 3.81 mg/cm^2 /hr
- flux of salicylic acid (in words) [1]: significantly greater
- DSC Tm (temperature of the transition maximum) [2]: 59.0 ± 1.5 °C
- Lipid Transition Temperature, Tm ([6]; 0/100 PEG 200/0.1M Tris buffer (pH 6.8-7.3), […] v/v oleic acid): 59 °C
- Lipid Transition Temperature, Tm ([6]; 0/100 ethanol/0.1M Tris buffer (pH 6.8-7.3), […] v/v oleic acid): 58 °C
- Lipid Transition Temperature, Tm ([6]; 0/100 glycerin/0.1M Tris buffer (pH 6.8-7.3), […] v/v oleic acid): 58 °C
- Lipid Transition Temperature, Tm ([6]; 0/100 v/v ethanol/Sorensen's buffer pH 7.3, […] v/v oleic acid): 57.5 °C
- Lipid Transition Temperature, Tm ([6]; 20/40/40 ethanol/PG/0.1M Tris buffer (pH 6.8-7.3), […] v/v oleic acid): 55 °C
- Lipid Transition Temperature, Tm ([6]; 20/80 PEG 200/0.1M Tris buffer (pH 6.8-7.3), […] v/v oleic acid): 59 °C
- Lipid Transition Temperature, Tm ([6]; 20/80 ethanol/0.1M Tris buffer (pH 6.8-7.3), […] v/v oleic acid): 59 °C
- Lipid Transition Temperature, Tm ([6]; 20/80 glycerin/0.1M Tris buffer (pH 6.8-7.3), […] v/v oleic acid): 62.5 °C
- Lipid Transition Temperature, Tm ([6]; 20/80 v/v ethanol/Sorensen's buffer pH 7.3, […] v/v oleic acid): 54.5 °C
- Lipid Transition Temperature, Tm ([6]; 30/70 v/v ethanol/Sorensen's buffer pH 7.3, […] v/v oleic acid): 54.0 °C
- Lipid Transition Temperature, Tm ([6]; 33/33/34 ethanol/PG/0.1M Tris buffer (pH 6.8-7.3), […] v/v oleic acid): 59 °C
- Lipid Transition Temperature, Tm ([6]; 34/66/0 ethanol/PG/0.1M Tris buffer (pH 6.8-7.3), […] v/v oleic acid): 61 °C
- Lipid Transition Temperature, Tm ([6]; 40/20/40 ethanol/PG/0.1M Tris buffer (pH 6.8-7.3), […] v/v oleic acid): 58.5 °C
- Lipid Transition Temperature, Tm ([6]; 40/40/20 ethanol/PG/0.1M Tris buffer (pH 6.8-7.3), […] v/v oleic acid): 60 °C
- Lipid Transition Temperature, Tm ([6]; 40/60 PEG 200/0.1M Tris buffer (pH 6.8-7.3), […] v/v oleic acid): 57.5 °C
- Lipid Transition Temperature, Tm ([6]; 40/60 ethanol/0.1M Tris buffer (pH 6.8-7.3), […] v/v oleic acid): 55 °C
- Lipid Transition Temperature, Tm ([6]; 40/60 glycerin/0.1M Tris buffer (pH 6.8-7.3), […] v/v oleic acid): 57 °C
- Lipid Transition Temperature, Tm ([6]; 40/60 v/v ethanol/Sorensen's buffer pH 7.3, […] v/v oleic acid): 53.2 ± 0.6 °C
- Lipid Transition Temperature, Tm ([6]; 50/50 v/v ethanol/Sorensen's buffer pH 7.3, […] v/v oleic acid): 55.1 °C
- Lipid Transition Temperature, Tm ([6]; 60/40 PEG 200/0.1M Tris buffer (pH 6.8-7.3), […] v/v oleic acid): 57 °C
- Lipid Transition Temperature, Tm ([6]; 60/40 ethanol/0.1M Tris buffer (pH 6.8-7.3), […] v/v oleic acid): 59 °C
- Lipid Transition Temperature, Tm ([6]; 60/40 glycerin/0.1M Tris buffer (pH 6.8-7.3), […] v/v oleic acid): 54 °C
- Lipid Transition Temperature, Tm ([6]; 60/40 v/v ethanol/Sorensen's buffer pH 7.3, […] v/v oleic acid): 53.4 °C
- Lipid Transition Temperature, Tm ([6]; 66/34/0 ethanol/PG/0.1M Tris buffer (pH 6.8-7.3), […] v/v oleic acid): 60 °C
- Lipid Transition Temperature, Tm ([6]; 70/30 v/v ethanol/Sorensen's buffer pH 7.3, […] v/v oleic acid): 58.8 °C
- Lipid Transition Temperature, Tm ([6]; 80/20 PEG 200/0.1M Tris buffer (pH 6.8-7.3), […] v/v oleic acid): 61 °C
- Lipid Transition Temperature, Tm ([6]; 80/20 ethanol/0.1M Tris buffer (pH 6.8-7.3), […] v/v oleic acid): 61 °C
- Lipid Transition Temperature, Tm ([6]; 80/20 glycerin/0.1M Tris buffer (pH 6.8-7.3), […] v/v oleic acid): 59 °C
- Lipid Transition Temperature, Tm ([6]; 100/0 v/v ethanol/Sorensen's buffer pH 7.3, […] v/v oleic acid): 66.4 °C

Structure (SMILES): NC(CO)(CO)CO [Tris]
- effect on oleic acid's action on stratum corneum lipids ([6]; concentration dependent): reduces the effect of oleic acid on stratum corneum lipids

Structure (SMILES): CCCCCC/C=C/CCCCCCCCCC(=O)O [trans-vaccenic, trans-vaccenic acid]
- Flux of Salicylic Acid [1, 8]: 1.11 mg/cm^2 /hr
- DSC Tm (temperature of the transition maximum) [2]: 61.0 °C
- Peak IR Frequency [3]: 2920 cm⁻¹

Structure (SMILES): CN1C(C(=O)Nc2ccccn2)=C(O)c2ccccc2S1(=O)=O [Piroxicam, 4-hydroxy-2-methyl-N-2-pyridinyl-2H-1,2-benzothiazine-3-carboxamide 1,1-dioxide]
- solubility ([7]; 0/100 ethanol/buffer): 40 µg/mL (≈ 121 µM)
- solubility ([7]; 10/90 ethanol/buffer): 190 µg/mL (≈ 573 µM)
- solubility ([7]; 20/80 ethanol/buffer): 460 µg/mL (≈ 1390 µM)
- solubility ([7]; 30/70 ethanol/buffer): 710 µg/mL (≈ 2140 µM)
- solubility ([7]; 40/60 ethanol/buffer): 1200 µg/mL (≈ 3620 µM)
- solubility ([7]; 50/50 ethanol/buffer): 1500 µg/mL (≈ 4530 µM)
- solubility ([7]; 100/0 ethanol/buffer): 1200 µg/mL (≈ 3620 µM)

Structure (SMILES): CCCCCCCC/C=C/CCCCCCCC(=O)O [Elaidic, elaidic acid]
- Flux of Salicylic Acid [1]: 2.35 mg/cm^2 /hr
- DSC Tm (temperature of the transition maximum) [2]: 61.5 °C
- Peak IR Frequency [3]: 2919.4 cm⁻¹

Structure (SMILES): CCCCCCCCCCC/C=C/CCCCC(=O)O [Petroseladic]
- Flux of Salicylic Acid [1]: 0.97 mg/cm^2 /hr
- DSC Tm (temperature of the transition maximum) [2]: 62.0 °C
- Peak IR Frequency [3]: 2919.0 cm⁻¹
